Measured values: article PMC8659034, “Natural Xanthine Oxidase Inhibitor 5-O-Caffeoylshikimic Acid Ameliorates Kidney Injury Caused by Hyperuricemia in Mice” (Molecules, 2021)

Legend:
xanthine oxidase (XOD) [1] = target: T1, xanthine oxidase (XOD) (Bos taurus, UniProt P80457); test: spectrophotometric uric acid formation assay at […] nm, % inhibition at […]; type: biochemical; conditions: read-out: % inhibition at 100 μg/mL
T1 construct: gene XDH

xanthine oxidase (XOD) [2] = target: T1, xanthine oxidase (XOD); test: spectrophotometric uric acid formation assay at […] nm; reversibility plots; type: biochemical

T1 sequence (P80457 2-1332): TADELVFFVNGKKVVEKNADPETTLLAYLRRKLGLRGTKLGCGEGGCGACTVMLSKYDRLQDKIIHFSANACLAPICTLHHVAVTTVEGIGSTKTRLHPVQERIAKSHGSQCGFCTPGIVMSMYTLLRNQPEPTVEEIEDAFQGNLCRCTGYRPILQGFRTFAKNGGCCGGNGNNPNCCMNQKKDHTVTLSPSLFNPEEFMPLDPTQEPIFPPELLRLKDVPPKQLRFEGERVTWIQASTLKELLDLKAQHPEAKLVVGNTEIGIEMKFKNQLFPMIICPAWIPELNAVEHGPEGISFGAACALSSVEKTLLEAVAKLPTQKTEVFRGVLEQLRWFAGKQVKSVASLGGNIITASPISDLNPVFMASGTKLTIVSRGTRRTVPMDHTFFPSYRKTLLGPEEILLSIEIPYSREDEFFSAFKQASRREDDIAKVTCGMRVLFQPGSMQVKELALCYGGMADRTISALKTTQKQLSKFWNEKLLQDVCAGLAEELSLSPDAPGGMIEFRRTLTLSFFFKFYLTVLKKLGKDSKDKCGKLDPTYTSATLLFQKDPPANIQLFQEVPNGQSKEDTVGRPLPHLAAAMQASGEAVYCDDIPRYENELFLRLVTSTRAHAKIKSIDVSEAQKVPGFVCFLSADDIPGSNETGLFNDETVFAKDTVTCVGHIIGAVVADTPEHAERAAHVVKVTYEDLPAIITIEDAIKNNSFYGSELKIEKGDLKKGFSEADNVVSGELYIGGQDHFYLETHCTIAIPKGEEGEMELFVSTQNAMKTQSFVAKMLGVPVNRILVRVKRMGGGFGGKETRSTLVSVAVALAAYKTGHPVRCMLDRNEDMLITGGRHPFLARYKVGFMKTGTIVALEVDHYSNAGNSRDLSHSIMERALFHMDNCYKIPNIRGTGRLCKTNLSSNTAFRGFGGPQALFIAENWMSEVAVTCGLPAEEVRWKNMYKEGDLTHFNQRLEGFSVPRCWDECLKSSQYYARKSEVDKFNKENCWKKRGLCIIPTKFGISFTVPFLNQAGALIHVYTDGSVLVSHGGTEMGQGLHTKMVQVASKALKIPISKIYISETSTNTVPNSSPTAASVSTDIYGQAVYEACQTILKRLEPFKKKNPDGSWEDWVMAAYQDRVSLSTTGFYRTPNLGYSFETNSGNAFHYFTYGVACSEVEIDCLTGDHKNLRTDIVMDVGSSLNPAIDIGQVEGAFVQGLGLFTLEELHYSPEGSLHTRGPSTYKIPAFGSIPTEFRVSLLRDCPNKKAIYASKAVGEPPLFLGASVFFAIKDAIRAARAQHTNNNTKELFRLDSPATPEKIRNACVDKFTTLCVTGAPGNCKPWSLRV

Row | IC50 (xanthine oxidase (XOD) [2]) | Structure (SMILES) | inhibition at 100 µg/mL (xanthine oxidase (XOD) [1])
1 | – | O=c1c(O)c(-c2ccc(O)c(O)c2)oc2cc(O)cc(O)c12 [compound 3, quercetin] | 82.1%
2 | – | C[C@@H]1O[C@@H](O[C@H]2C(=O)c3c(O)cc(O)cc3O[C@@H]2c2ccc(O)c(O)c2)[C@H](O)[C@H](O)[C@H]1O [compound 6, astilbin] | 33.2%
3 | 14 µM | O=C(/C=C/c1ccc(O)c(O)c1)O[C@@H]1CC(C(=O)O)=C[C@@H](O)[C@H]1O [compound 1, 5-O-caffeoylshikimic acid] | –
